The source of these data is patent US12612380B2, “Non-lysosomal glucosylceramidase inhibitors and uses thereof” (ALECTOS THERAPEUTICS INC., priority 2019, dated 2026).

This experiment addresses T1, GBA2 (Homo sapiens, UniProt Q9HCG7).
T1 sequence (Q9HCG7 1-927): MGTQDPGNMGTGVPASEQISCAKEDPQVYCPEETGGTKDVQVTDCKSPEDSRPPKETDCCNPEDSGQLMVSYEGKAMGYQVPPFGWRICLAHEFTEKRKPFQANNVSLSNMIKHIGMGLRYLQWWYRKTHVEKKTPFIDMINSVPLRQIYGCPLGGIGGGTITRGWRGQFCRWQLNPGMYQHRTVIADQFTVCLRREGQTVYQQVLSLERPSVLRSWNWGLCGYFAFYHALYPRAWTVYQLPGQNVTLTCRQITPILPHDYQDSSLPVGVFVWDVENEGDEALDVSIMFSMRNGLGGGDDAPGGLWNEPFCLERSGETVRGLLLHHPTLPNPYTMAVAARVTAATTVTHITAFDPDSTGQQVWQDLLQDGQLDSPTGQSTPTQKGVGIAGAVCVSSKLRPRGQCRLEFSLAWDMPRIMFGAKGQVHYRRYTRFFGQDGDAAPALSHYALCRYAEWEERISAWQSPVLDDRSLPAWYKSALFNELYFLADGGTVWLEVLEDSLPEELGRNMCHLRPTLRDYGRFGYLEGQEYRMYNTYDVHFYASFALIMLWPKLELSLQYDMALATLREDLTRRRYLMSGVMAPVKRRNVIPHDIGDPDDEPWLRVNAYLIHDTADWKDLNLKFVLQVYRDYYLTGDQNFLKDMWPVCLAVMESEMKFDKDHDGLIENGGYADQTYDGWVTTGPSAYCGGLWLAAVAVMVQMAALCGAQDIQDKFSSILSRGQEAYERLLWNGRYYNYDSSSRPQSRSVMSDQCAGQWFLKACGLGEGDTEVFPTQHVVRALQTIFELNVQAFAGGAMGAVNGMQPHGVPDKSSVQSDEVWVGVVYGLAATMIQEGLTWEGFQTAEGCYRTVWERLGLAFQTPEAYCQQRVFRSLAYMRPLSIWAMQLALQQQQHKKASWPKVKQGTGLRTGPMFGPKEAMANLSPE
Kind of experiment: Determination of IC50 values for inhibition of GBA2 in cell lysate. On the set-up: host or cells: HEK293T (lentiviral transduction, puromycin selection); used as cellular homogenate. The conditions noted are these: cellular homogenate of HEK293T cells overexpressing human GBA2, 250 μM 4-methylumbelliferone-β-D glucopyranoside, pH 5.5, 37° C., GCase inhibitor present; read-out: GBA2 IC50. It counts as biochemical. From the text: Assay for Determination of IC50 Values for Inhibition of GBA2 in Cell Lysate
Stable GBA2-expressing HEK293T cells were generated as follows. The PCR-amplified human GBA2 (GBA2 nucleotide accession number BC011363) using the following primers: Sense 5′---CGCAAATGGGCGGTAGGCGTG (SEQ ID NO:2)---3′ and antisense 5′---TAGTCAGCCATGGGGCGGAGA (SEQ ID NO:3)---3′) was cloned into pLenti-GIII-CMV by ABM Inc. The correctness of the construct was verified by sequencing. Lentivirus particles containing GBA2 in the pLenti-GIII-CMV plasmid were prepared using a third Generation Virus Packaging Mix (ABM cat #LV053-G074) in HEK293T cells and supplied as a virus particle suspension. The virus suspension was used for infection of HEK293T cells. Cell populations stably expressing human GBA2 were selected using puromycin for several weeks as determined by activity assays and western blot.
Various concentrations of test compounds were prepared in DMSO and then diluted into buffer consisting of 100 mM citric acid, 200 mM disodium phosphate with 1% v/v C10E6, pH 5.5. Cellular homogenates (0.25 mg/mL) of the stable HEK293T-overexpressing GBA2 cell line were preincubated for 10 min on ice with an inhibitor of GCase (20 μM (6R,7R,8S)-8-ethyl-4-azaspiro[2.5]octane-6,7-diol). The reaction solution consisted of 20 μL of 750 μM 4-methylumbelliferone-β-D glucopyranoside in 5% DMSO in the same buffer, 20 μL of GBA2-cellular homogenate pre-treated with (6R,7R,8S)-8-ethyl-4-azaspiro[2.5]octane-6,7-diol and 20 μL of various concentrations of test compound in 10% DMSO in the same buffer. The final concentrations in the reaction were 0.083 mg/mL GBA2-cellular homogenate, 250 μM 4-methylumbelliferone-β-D glucopyranoside, and various concentrations of inhibitor. The inhibitor and GBA2-cellular homogenate were preincubated together for 5 min at 37° C. The reaction was initiated by addition of substrate and allowed to proceed for 20 min at 37° C. to assess GBA2 activity. Reactions were stopped by the addition of an equal volume (60 μL) of 0.5 M NaOH, 0.3 M glycine, pH 10.5. Fluorescence was measured on a Biotek Synergy H4 plate reader at wavelengths of 365 nm for excitation and 450 nm for emission. Incubations without added enzyme or added inhibitors were used to define no enzyme activity and maximal enzyme activity, respectively. IC50 values were determined by fitting the data to a log[inhibitor concentration] versus response curve using GraphPad Prism. IC50 values were calculated as the concentration of inhibitor required to inhibit GBA2 activity by 50%.
As to `C[C@@H]1[C@@H](O)[C@H](O)[C@@H](O)CN1CC1CCCCC1` [Example 1, (2R,3R,4R,5S)-1-(cyclohexylmethyl)-2-methylpiperidine-3,4,5-triol], the concentration for half-maximal inhibition (IC50) fell in the range of 100 to 1000 nM.

For the compound `C[C@@H]1[C@@H](O)[C@H](O)[C@@H](O)CN1CC1CCC(C)(C)CC1` [Example 2, (2R,3R,4R,5S)-1-((4,4-dimethylcyclohexyl)methyl)-2-methylpiperidine-3,4,5-triol], the IC50 was in the range of 100 to 1000 nM.

Consider `C[C@@H]1[C@@H](O)[C@H](O)[C@@H](O)CN1CC1CCC(F)(F)CC1` [Example 3, (2R,3R,4R,5S)-1-((4,4-difluorocyclohexyl)methyl)-2-methylpiperidine-3,4,5-triol], for which the IC50 is 1000 to 25000 nM.

In the case of `C[C@@H]1[C@@H](O)[C@H](O)[C@@H](O)CN1CC1CCC(Cl)(Cl)CC1` [Example 4, (2R,3R,4R,5S)-1-((4,4-dichlorocyclohexyl)methyl)-2-methylpiperidine-3,4,5-triol], the half-inhibitory concentration (IC50) was less than 100 nM.

As for `CCC1CCC(CN2C[C@H](O)[C@@H](O)[C@H](O)[C@H]2C)CC1` (stereo partly drawn) [Example 5, (2R,3R,4R,5S)-1-((4-ethylcyclohexyl)methyl)-2-methylpiperidine-3,4,5-triol], the half-inhibitory concentration (IC50) was less than 100 nM.

For `C=C[C@H]1CC[C@@H](CN2C[C@H](O)[C@@H](O)[C@H](O)[C@H]2C)CC1` [Example 6, (2R,3R,4R,5S)-2-methyl-1-(((1s,4S)-4-vinylcyclohexyl)methyl)piperidine-3,4,5-triol], the half-inhibitory concentration (IC50) is less than 100 nM.

Consider `CC(C)[C@H]1CC[C@H](CN2C[C@H](O)[C@@H](O)[C@H](O)[C@H]2C)CC1` [Example 8, (2R,3R,4R,5S)-1-(((1r,4R)-4-isopropylcyclohexyl)methyl)-2-methylpiperidine-3,4,5-triol], for which the half-maximal inhibitory concentration (IC50) is less than 100 nM.

As to `C[C@@H]1[C@@H](O)[C@H](O)[C@@H](O)CN1C[C@H]1CC[C@H](C(C)(C)C)CC1` [Example 10, (2R,3R,4R,5S)-1-(((1r,4R)-4-(tert-butyl)cyclohexyl)methyl)-2-methylpiperidine-3,4,5-triol], the IC50 is less than 100 nM.

On to `C[C@@H]1[C@@H](O)[C@H](O)[C@@H](O)CN1C[C@H]1CC[C@H](C(C)(C)F)CC1` [Example 14, (2R,3R,4R,5S)-1-(((1r,4R)-4-(2-fluoropropan-2-yl)cyclohexyl)methyl)-2-methylpiperidine-3,4,5-triol], for which the IC50 is less than 100 nM.

With `C[C@@H]1[C@@H](O)[C@H](O)[C@@H](O)CN1C[C@H]1CCC[C@H](C(F)(F)F)C1` [Example 15, (2R,3R,4R,5S)-2-methyl-1-(((trans)-3-(trifluoromethyl)cyclohexyl)methyl)piperidine-3,4,5-triol], the IC50 is less than 100 nM.

As to `C[C@@H]1[C@@H](O)[C@H](O)[C@@H](O)CN1C[C@H]1CCC[C@@H](C(F)(F)F)C1` [Example 16, (2R,3R,4R,5S)-2-methyl-1-(((cis)-3-(trifluoromethyl)cyclohexyl)methyl)piperidine-3,4,5-triol], the IC50 lay within 100 to 1000 nM.

In the case of `CO[C@H]1CC[C@@H](CN2C[C@H](O)[C@@H](O)[C@H](O)[C@H]2C)CC1` [Example 17, (2R,3R,4R,5S)-1-(((1s,4S)-4-methoxycyclohexyl)methyl)-2-methylpiperidine-3,4,5-triol], the IC50 was 1000 to 25000 nM.

Consider `CO[C@H]1CC[C@H](CN2C[C@H](O)[C@@H](O)[C@H](O)[C@H]2C)CC1` [Example 18, (2R,3R,4R,5S)-1-(((1r,4R)-4-methoxycyclohexyl)methyl)-2-methylpiperidine-3,4,5-triol], for which the IC50 was in the range of 1000 to 25000 nM.

For the compound `COCC1CCC(CN2C[C@H](O)[C@@H](O)[C@H](O)[C@H]2C)CC1` (stereo partly drawn) [Example 19, (2R,3R,4R,5S)-1-((4-(methoxymethyl)cyclohexyl)methyl)-2-methylpiperidine-3,4,5-triol], the IC50 lay in the range of 100 to 1000 nM.

With `C[C@@H]1[C@@H](O)[C@H](O)[C@@H](O)CN1C[C@H]1CC[C@H](C2CC2)CC1` [Example 21, (2R,3R,4R,5S)-1-(((1r,4R)-4-cyclopropylcyclohexyl)methyl)-2-methylpiperidine-3,4,5-triol], the IC50 was less than 100 nM.

For `C[C@@H]1[C@@H](O)[C@H](O)[C@@H](O)CN1CC1CCC(c2ccccc2)CC1` (stereo partly drawn) [Example 22, (2R,3R,4R,5S)-2-methyl-1-((4-phenylcyclohexyl)methyl)piperidine-3,4,5-triol], the IC50 is less than 100 nM.

As for `C[C@@H]1[C@@H](O)[C@H](O)[C@@H](O)CN1CC1CCC2(CC1)CC2` [Example 23, (2R,3R,4R,5S)-2-methyl-1-(spiro[2.5]octan-6-ylmethyl)piperidine-3,4,5-triol], the IC50 fell in the range of 100 to 1000 nM.

Turning to `C[C@@H]1[C@@H](O)[C@H](O)[C@@H](O)CN1CC1CCC2(CCCC2)CC1` [Example 25, (2R,3R,4R,5S)-2-methyl-1-(spiro[4.5]decan-8-ylmethyl)piperidine-3,4,5-triol], the IC50 was less than 100 nM.

With `C[C@@H]1[C@@H](O)[C@H](O)[C@@H](O)CN1C[C@H]1CC[C@]2(CC1)COC(C)(C)C2` [Example 26, (2R,3R,4R,5S)-1-(((5S,8s)-3,3-dimethyl-2-oxaspiro[4.5]decan-8-yl)methyl)-2-methylpiperidine-3,4,5-triol], the IC50 lay in the range of 100 to 1000 nM.

With `C[C@@H]1[C@@H](O)[C@H](O)[C@@H](O)CN1CC1CCc2ccccc2C1` (stereo partly drawn) [Example 27, (2R,3R,4R,5S)-2-methyl-1-((1,2,3,4-tetrahydronaphthalen-2-yl)methyl)piperidine-3,4,5-triol], the IC50 was less than 100 nM.

In the case of `C[C@@H]1[C@@H](O)[C@H](O)[C@@H](O)CN1CC1Cc2ccccc2C1` [Example 28, (2R,3R,4R,5S)-1-((2,3-dihydro-1H-inden-2-yl)methyl)-2-methylpiperidine-3,4,5-triol], the IC50 is less than 100 nM.

Turning to `C[C@@H]1[C@@H](O)[C@H](O)[C@@H](O)CN1CCC1CCCCC1` [Example 29, (2R,3R,4R,5S)-1-(2-cyclohexylethyl)-2-methylpiperidine-3,4,5-triol], the IC50 lay in the range of 100 to 1000 nM.

`C[C@@H]1[C@@H](O)[C@H](O)[C@@H](O)CN1CCC1CCC(F)(F)CC1` [Example 30, (2R,3R,4R,5S)-1-(2-(4,4-difluorocyclohexyl)ethyl)-2-methylpiperidine-3,4,5-triol]: the half-maximal inhibitory concentration (IC50) fell in the range of 100 to 1000 nM.

Consider `C[C@@H]1[C@@H](O)[C@H](O)[C@@H](O)CN1CC[C@H]1CC[C@@H](C(F)(F)F)CC1` [Example 31, (2R,3R,4R,5S)-2-methyl-1-(2-((1s,4S)-4-(trifluoromethyl)cyclohexyl)ethyl)piperidine-3,4,5-triol], for which the IC50 is less than 100 nM.

Regarding `C[C@@H]1[C@@H](O)[C@H](O)[C@@H](O)CN1CC[C@H]1CC[C@H](C(F)(F)F)CC1` [Example 32, (2R,3R,4R,5S)-2-methyl-1-(2-((1r,4R)-4-(trifluoromethyl)cyclohexyl)ethyl)piperidine-3,4,5-triol], the IC50 was less than 100 nM.

As a reminder, the IC50 is the concentration that gives 50% inhibition.
